Source: patent publication US10597735B2, “Antibacterial and plasmid elimination agents” (priority 2006, dated 2020)
In brackets after ≈: the same amount, converted by molar mass. Entries after “also recorded” stand apart in the source; their conditions may differ. Where two headings read alike, the source gives them in different places. Where a SMILES comes first, the peptide text is derived from it.

Columns and labels:
[1] = test system: GFP-tag degradation by ClpXP; test: In vivo screen: GFP-tag reporter fluorescence in E. coli producing the cyclic peptide from a SICLOPPS plasmid, epifluorescence microscopy (Example 3); format: cell-based
Procedure: Screen for inhibitors of the tmRNA pathway: E. coli BW7786 cells containing the GFP-tag reporter and the SICLOPPS library were grown in LB broth with 30 μg/ml chloramphenicol, 100 μg/ml ampicillin, and 0.0002% arabinose at 37° C. to OD600=0.3. IPTG was added to a final concentration of 1 mM, and the culture was grown for 3 hours. Cells were sorted by fluorescence activated cell sorting (FACS) using a Beckman Coulter Elite cell sorter with Autoclone to isolate cells with GFP fluorescence, and selected cells were deposited on agar plates for clonal growth. Cells from each colony were grown in liquid culture as described above and examined by epifluorescence microscopy. The fluorescence intensity and the number of cells with fluorescence above background were scored using ImagePro software (MediaCybernetics). SICLOPPS plasmid DNA was prepared from selected clones and the region encoding the cyclic peptide was sequenced. Peptide sequences were obtained from conceptual translation of the DNA sequences.
Approximately 0.014% of the population had fluorescence over the background level, and 96 of these cells were isolated for clonal growth and characterization. To eliminate any clones that resulted from sorting errors or spurious accumulation of GFP, cells from each colony were cultured and examined by epifluorescence microscopy.

ClpX = ClpX (Escherichia coli, UniProt P0A6H1); test: ClpX ATPase assay; format: biochemical, E. coli
Procedure: ATPase and peptidase assays: ClpX ATPase activity was measured by monitoring the increase in phosphate using a ternary hetero polyacid assay (Chen et al. 2003, Tsinghua Science and Technology 8: 422-427). 1 μM ClpX was incubated with or without 6 μM GFP-tag and varying concentrations of IXP1 in buffer P (4 mM ATP, 50 mM tris-HCl (pH 7.5), 100 mM NaCl, 100 mM KCl, 10 mM MgCl2, 2 mM DTT, and 10% glycerol) at 37° C. At each time point 10 μl was removed from the reaction, added to 265 μl 0.88 M nitric acid for 2 min, and 225 μl color developing solution (44.4 mM bismuth nitrate, 31.1 mM ammonium molybdate, 0.11% ascorbic acid) was added and the absorbance at 700 nm was determined. The rate of ATP hydrolysis was determined from plots of phosphate accumulation versus time.

ClpXP [2] = biological target: T1, ClpXP (Escherichia coli, UniProt P0A6G7+P0A6H1); test: Peptidase activity of ClpXP against IXP1, reverse-phase HPLC; format: biochemical, E. coli; conditions: 60 min, no GFP-tag, HPLC peak area
Procedure: Peptidase activity against IXP1 was assayed by incubating 200 μM IXP1 with 0.1 μM ClpX6, 0.3 μM ClpP14 and the ATP regeneration system in buffer R at 37° C. Sample were taken after 0, 5, and 60 min, and
separated by reverse-phase HPLC using a Varian Microsorb-MV C18 column developed in a gradient from 0.1% trifluoroacetic acid in water to 0.1% trifluoroacetic acid in acetonitrile. UV absorbance at 280 nm was monitored and the peak corresponding to the IXP1 cyclic peptide was determined by comparison to reactions containing only cyclic IXP1 or linear IXP1. The loss of cyclic IXP1 was determined by integrating the area under the cyclic IXP1 peak.

ClpP = ClpP (Escherichia coli, UniProt P0A6G7); test: ClpP peptidase assay with Suc-Leu-Tyr-AMC; format: biochemical, E. coli; conditions: Suc-Leu-Tyr-AMC substrate
Procedure: ClpP peptidase activity was measured using the fluorogenic peptide Suc-Leu-Tyr-AMC. 0.1 μM ClpP was incubated with 0.5-1.0 mM Suc-Leu-Tyr-AMC and varying concentrations of IXP1 in buffer P at 37° C. and monitoring the fluorescence of AMC (excitation at 353 nm, emission at 442 nm).

GFP-tag reporter = GFP-tag reporter fluorescence in cells expressing SGW+5 SICLOPPS clones, epifluorescence microscopy (Example 1); format: cell-based, E. coli
Description: Clonal populations are obtained by spotting the cells with high fluorescence on agar plates, and cells from each colony are screened by epi-fluorescence microscopy for fluorescence intensity. SICLOPPS plasmids from clones that pass the microscopy screen were isolated and sequenced to identify the cyclic peptide that is produced in that clone.
A SICLOPPS library was constructed in which the cyclic peptide contains three constant amino acids, SGW, followed by five random amino acids encoded by NNS codons. This library was introduced into cells containing the GFP-tag reporter, and the expression of the reporter and cyclic peptide were induced. Approximately 690,000 cells were sorted by FACS and the brightest 50 were isolated. These 50 clones were grown individually in fresh medium, the expression of reporter and cyclic peptide was induced, and the culture was observed by epifluorescence microscopy. Two clones produced cultures in which nearly 100% of the cells were highly fluorescent.

C. crescentus = format: cell-based, Caulobacter crescentus
Procedure: Antibacterial activity assays: To measure the effects of peptides on bacterial growth, cultures of C. crescentus were diluted to OD600=0.001, peptide was added at various concentrations, the cultures were incubated at 30° C. for 14 h, and the MIC was determined as the lowest concentration of peptide that prevented growth. To determine the MBC, each culture was diluted 1:100 in PYE and 10 μl of the diluted culture was spread onto PYE agar plates, incubated at 30° C. overnight, and the number of colonies on each plate was counted. The MBC was assigned as the concentration of peptide that reduced the number of colonies by 99.9% compared to cultures with no inhibitor.

ClpXP [3] = biological target: T1, ClpXP; test: In vitro proteolysis of GFP-tag by ClpXP without SspB (Example 3); format: biochemical, E. coli; conditions: no SspB
Procedure: (§1) In vitro proteolysis assays: Proteolysis of GFP-tag was performed using a continuous fluorescence assay essentially as previously described (Levchenko et al. 2000, Science 289: 2354-2356). Briefly, loss of GFP fluorescence was monitored at 507 nm after excitation at 395 nm at 30° C. using a Hitachi F-2000 Fluorescence Spectrophotometer in buffer R (25 mM HEPES-KOH (pH 7.6), 5 mM MgCl2, 50 mM KCl, 0.032% NP-40, 10% glycerol, and an ATP regeneration system containing 4 mM ATP (pH 7), 16 mM creatine phosphate and 0.32 mg/ml creatine kinase). Typically, reactions contained […], 0.3 μM ClpP14, and equimolar concentrations (0.2 μM-2.0 μM) GFP-tag and SspB. Degradation of GFP-tag protein was confirmed by SDS-PAGE assays. To examine inhibition of GFP-tag proteolysis, peptides were incubated with ClpXP in reaction buffer for 5 min prior to the addition of GFP-tag. Plots of fluorescence versus time were fit with a single exponential function to determine the initial rate of proteolysis. Kinetic parameters were estimated using Eadie-Hofstee plots.
In the in vitro and in vivo proteolysis reactions above, the proteolytic adaptor SspB binds GFP-tag and tethers it to ClpXP (Levchenko et al. 2000, Science 289: 2354-2356). In principle, IXP1 could act on the GFP-tag.cndot.ClpXP interaction or the SspB.cndot.ClpXP interaction. […]

ClpXP [4] = biological target: T1, ClpXP; test: biochemical; format: biochemical, E. coli
Procedure: as §1
Proteolysis of GFP-tag in the presence of ClpXP and SspB was monitored by loss of GFP fluorescence in a continuous fluorometric assay. In the absence of cyclic peptide, GFP-tag was degraded with kinetic parameters kcat=[…], KM=0.74±0.04 μM. […] Likewise, no degradation was observed when ClpX or ClpP were omitted from the reaction.

ClpXP [5] = biological target: T1, ClpXP; test: Proteolysis of λO protein by ClpXP, SDS-PAGE (Example 3); format: biochemical, E. coli
Procedure: Proteolysis of λO protein was assayed by incubating 1 μM λO with 0.1 μM ClpX6, 0.3 μM ClpP14 in buffer R at 30° C. At various times the reaction was sampled, the reaction was terminated by boiling in SDS-PAGE loading buffer, and analyzed using SDS-polyacrylamide gels stained with Coomassie blue. The intensity of the band corresponding to intact λO protein was measured using ImageQuant software (Molecular Dynamics), and plots of the intensity versus time were fit with single exponential functions to determine the half-life of λO protein.
To determine if IXP1 inhibits proteolysis of ClpXP substrates recognized by an epitope distinct from the tmRNA tag, λO protein was used as an assay substrate. […] Degradation of λO was assayed in the presence and absence of IXP1 by following the loss of intact λO protein on SDS-polyacrylamide gels (FIG. 7).

ClpXP [6] = biological target: T1, ClpXP; test: ClpXP degradation of GFP-tag in the presence of SspB, continuous fluorimetric assay (Examples 1-2); format: biochemical, E. coli; conditions: SspB present
Procedure: (§2) ClpXP Proteolysis: PD buffer contained 25 mM HEPES-KOH (pH 7.6), 5 mM KCl, 5 mM MgCl2, 0.032% NP-40, 5 mM ATP, and 10% glycerol. The ATP regenerating system consisted of 8 mM creatine phosphate and 0.16 mg/ml creatine kinase. Inhibition experiments were performed using a Hitachi F-2000 Fluorescence Spectrophotometer. The rate of GFP-ssrA degradation was monitored at 30° C. for 5 minutes by the loss of fluorescence (excitation 488 nm; emission 507 nm). Competition experiments with increasing concentrations of peptide were performed using GFP-ssrA (0.2 μM), ClpX6 (0.3 ArM), ClpP14 (0.8 μM), and SspB2 (0.3 μM) in PD buffer plus 200 mM KCl and ATP regenerating system. Curve fitting for the competitive inhibition assays were performed using the Scientist program (MicroMath Scientific Software, Inc.).
Characterization of ClpXP inhibitors in vitro: Two of the selected cyclic peptides were synthesized in vitro to examine their effects on enzymatic assays. Peptides with the sequence SGWRVQGPL (SEQ ID NO: 1) and SGSKGVLPL (SEQ ID NO: 2) were chemically synthesized in the linear form, circularized, and purified by HPLC. The effects of these peptides on the activity of purified ClpXP were determined in vitro using a continuous fluorimetric assay. GFP-tag, SspB, ClpX and ClpP were each purified from over-expressing strains of E. coli, and degradation of GFP-tag was monitored by loss of fluorescence. In reactions containing all components, GFP-tag was degraded with kinetic parameters kcat=1.79±0.08 min−1, KM=0.74±0.04, similar to the previously published values of 1.44 min^−1 and 0.96 μM. […] For both cyclic peptides, inhibition of ClpXP was reversible, as no inhibition was observed when ClpXP was incubated with peptide at concentrations above the Kr, and dialyzed to remove unbound peptide before addition of enzyme to the reaction. The linear versions of SGSKGVLPL (SEQ ID NO: 2) and SGWRVQGPL (SEQ ID NO: 1) had Kb, values >1 mM (Table 4), so the cyclic architecture is likely to be important for inhibition.

ClpXP [7] = biological target: T1, ClpXP; test: ClpXP degradation of GFP-tag in the absence of SspB (Examples 1-2); format: biochemical, E. coli; conditions: no SspB
Procedure: as §2
A priori, there are several steps in the degradation pathway that could be inhibited by the selected cyclic peptides: binding of the substrate-SspB complex to ClpXP, ATPase activity of ClpX, and hydrolysis of the peptide bond by ClpP. Molecules that block the binding of substrate to SspB should not be inhibitors of proteolysis by ClpXP, because ClpXP will degrade tmRNA-tagged substrates in the absence of SspB. To determine if the inhibitors act through SspB, the kinetic assays were repeated in the absence of this proteolytic adaptor.

T1 sequence (P0A6G7 15-207): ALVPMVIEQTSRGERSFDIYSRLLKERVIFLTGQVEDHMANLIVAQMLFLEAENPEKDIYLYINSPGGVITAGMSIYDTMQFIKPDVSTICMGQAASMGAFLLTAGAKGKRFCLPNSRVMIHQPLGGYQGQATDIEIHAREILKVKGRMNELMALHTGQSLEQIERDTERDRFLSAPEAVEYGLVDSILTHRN
T1 sequence (P0A6H1 whole entry): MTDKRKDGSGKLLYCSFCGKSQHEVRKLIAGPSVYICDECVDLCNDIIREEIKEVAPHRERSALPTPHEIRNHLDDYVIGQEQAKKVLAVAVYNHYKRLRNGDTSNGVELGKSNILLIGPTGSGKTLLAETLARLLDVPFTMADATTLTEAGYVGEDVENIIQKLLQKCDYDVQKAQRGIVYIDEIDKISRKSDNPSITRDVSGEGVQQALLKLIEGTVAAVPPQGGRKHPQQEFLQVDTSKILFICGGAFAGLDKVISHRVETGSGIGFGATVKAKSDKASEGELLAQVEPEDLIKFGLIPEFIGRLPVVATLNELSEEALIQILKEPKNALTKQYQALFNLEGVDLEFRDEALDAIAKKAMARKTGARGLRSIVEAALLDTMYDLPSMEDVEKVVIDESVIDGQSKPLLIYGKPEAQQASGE
Sequence of ClpX (P0A6H1 whole entry): as above
Sequence of ClpP (P0A6G7 15-207): as the sequence (P0A6G7 15-207) above

Row | Compound | cell morphology ([1]; compared with filamentous ΔclpX strain) | GFP-tag fluorescence / inhibition in vivo ([1]; compared with ΔclpX strain) | ClpX ATPase activity with GFP-tag included (ClpX; with GFP-tag) | rate of ClpX ATP hydrolysis (ClpX; without GFP-tag, up to 200 μM IXP1) | amount of cyclic peptide after incubation with ClpXP (ClpXP [2]) | decrease of ClpP peptidase activity (ClpP) | average fluorescent intensity relative to cultures expressing ICP1 or ICP2 (GFP-tag reporter) | cells highly fluorescent (GFP-tag reporter; induced culture) | MBC (C. crescentus) | MIC (C. crescentus) | effect on GFP-tag degradation by ClpXP in the absence of SspB (ClpXP [3]) | mode of inhibition of GFP-tag degradation (ClpXP [4]; SspB present) | inhibition of ClpXP proteolysis of GFP-tag in vitro (ClpXP [4]; at the concentrations tested) | inhibition of λO degradation by ClpXP (ClpXP [5]) | KI fold lower than the linear XB peptide (ClpXP [6]) | KI fold lower than the selected cyclic peptide inhibitors (ClpXP [6]) | inhibition of GFP-tag degradation by ClpXP in the absence of SspB (ClpXP [7]) | MBC (C. crescentus; C. crescentus, 99.9% colony reduction, listed as cyclic XB) | KI fold lower than the linear XB peptide (ClpXP [4]; SspB present)
1 | N=C(N)NCCC[C@@H]1NC(=O)CNC(=O)[C@H](Cc2ccc(O)cc2)NC(=O)[C@H](Cc2c[nH]c3ccccc23)NC(=O)CNC(=O)[C@H](CO)NC(=O)[C@H](Cc2c[nH]cn2)NC(=O)[C@H](CCCNC(=N)N)NC1=O [IXP1, SGWYGRRH] (HELM PEPTIDE1{G.R.R.H.S.G.W.Y}$PEPTIDE1,PEPTIDE1,1:R1-8:R2$$$V2.0) | slightly filamentous | indistinguishable from the ΔclpX strain; also recorded: fluorescent cells | no effect | not inhibited | did not change; also recorded: unchanged | less than 2% | more than twice | ~100% | 279 ± 23 µM (≈ 279 µg/mL) | 219 ± 42 µM (≈ 219 µg/mL) | still inhibited | uncompetitive inhibition | reduced the rate |  |  |  |  |  | 
2 | CC(C)C[C@@H]1NC(=O)[C@H](C)NC(=O)[C@@H]2CCCN2C(=O)[C@H](CCCNC(=N)N)NC(=O)CNC(=O)CNC(=O)[C@H](CCCNC(=N)N)NC(=O)[C@H](CS)NC(=O)[C@H](CCCCN)NC(=O)[C@H](C(C)C)NC(=O)[C@H](C(C)C)NC(=O)[C@H](CCCNC(=N)N)NC1=O [cycXB, CRGGRPALRVVK] (HELM PEPTIDE1{A.L.R.V.V.K.C.R.G.G.R.P}$PEPTIDE1,PEPTIDE1,1:R1-12:R2$$$V2.0) |  |  |  |  |  |  |  |  |  |  |  |  |  | did not inhibit | 7 fold | 2-3 fold | inhibited | 40 ± 6 µM (≈ 51.7 µg/mL) | 7 fold
